Here are results for five molecules from publication PMC7444556, “MrpH, a new class of metal-binding adhesin, requires zinc to mediate biofilm formation” (PLoS Pathogens, 2020).

Each structure is given as a SMILES string. Structures can show the parent of a compound that is named as a salt. Where two headings read alike, the source gives them in different places.

Holding throughout (format): binding
For assay [1], the target named is T1, MrpH159 (MrpHntd) (Proteus mirabilis, UniProt B4EUK6).
T1 construct: gene mrpH; pEXP5-CT/TOPO (His-tag, Ni-NTA, no cleavage told); expressed in E. coli BL21-AI
T1 sequence (B4EUK6 entry or part of it): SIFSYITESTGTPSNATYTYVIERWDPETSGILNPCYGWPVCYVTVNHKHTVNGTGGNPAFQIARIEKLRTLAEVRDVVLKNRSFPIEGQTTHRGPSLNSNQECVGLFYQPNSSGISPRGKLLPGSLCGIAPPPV
As to conditions: 10 mM ligand, 10 uM protein, 24 mM NaCl, 6 mM HEPES pH 7.5, reference storage buffer 65.2±0.30 °C. From the text:
thermal shift assay (SYPRO Orange) on MrpH159 (MrpHntd)

In assay [2] the target is T1, MrpH159 (MrpHntd). The assay is described as follows: X-ray crystal structure, […] Å. To be noted: side chain carboxyl ligates Zn2+; ligand not added, picked up during expression, assigned from electron density.
The next assay addresses T2, MrpH153 (MrpHntd) (Proteus mirabilis, UniProt B4EUK6).
T2 construct: gene mrpH; C-terminal His-tag kept; expressed in E. coli
The assay is described as follows: thermal shift assay. As to conditions: 10 mM ammonium tartrate pH 7.0, 100 mM NaCl; reference 66.7 ± 0.6 °C in 10 mM HEPES pH 7.5.

T2 sequence (B4EUK6 entry or part of it): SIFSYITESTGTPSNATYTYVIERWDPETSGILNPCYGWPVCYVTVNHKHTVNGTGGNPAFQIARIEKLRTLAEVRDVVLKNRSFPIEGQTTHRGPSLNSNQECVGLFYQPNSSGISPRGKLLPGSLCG

With `O=CO` [Sodium formate], at MrpH159 (MrpHntd) [1], the “<Tm> (°C)^a” value turned out to be 68.4±0.75 °C.

For `N[C@@H](CCC(=O)O)C(=O)O` [glutamic acid], the “<Tm> (°C)^a” value at MrpH159 (MrpHntd) [1] was 73.1±0.21 °C. In addition, the “X-ray crystal structure, 1.75 Å” value on MrpH159 (MrpHntd) [2] is “we have assigned glutamic acid as the bound ligand in the MrpH159 structure”.

With `O=C(O)CC(O)(CC(=O)O)C(=O)O` [Sodium citrate], the “<Tm> (°C)^a” value on MrpH159 (MrpHntd) [1] (citrate pH not stated) is 73.3±0.64 °C.

Regarding `CC(=O)O` [Sodium acetate], the “<Tm> (°C)^a” value on MrpH159 (MrpHntd) [1] turned out to be 76.3±0.56 °C.

With `O=C(O)C(O)C(O)C(=O)O` (stereo not shown) [tartrate], at MrpH153 (MrpHntd), the melting temperature (Tm) stood at 78.5 ± 0.1 °C. Further, the “<Tm> (°C)^a” value at MrpH159 (MrpHntd) [1] came out at 80.1±0.70 °C.
